SMILES strings stand for the structures.

In the experiment the test system is arachidonic acid-induced ear swelling. Description: topical arachidonic acid-induced ear swelling model in mice. It counts as in vivo. Conditions: for % Inhibition of ear swelling: male ICR mice, topical application 30 min before and 15 min after arachidonic acid, measured at 90 minutes after arachidonic acid, indomethacin 14 mM (0.1 mg/20 μL), test compound 375 mM (1.1 mg/20 μL), relative to vehicle. How it is done:
4-Methylsulfonyl-2-butenenitrile, prepared from Example 1, was used in this experiment. The test compound, indomethacin (positive control), and vehicle were evaluated for anti-inflammatory activity in a topical arachidonic acid-induced ear swelling model in mice. Male ICR mice weighing 22±2 g were used and randomly divided; the test compound and vehicle control had 10 mice, and indomethacin had 5 mice. Arachidonic Acid (0.5 mg in 20 μl of acetone:ethanol/1:1) was applied topically to the anterior and posterior surfaces of the right ear of each mouse. Test substances and vehicle, as listed in Table 2 were similarly applied 30 min before and 15 min after arachidonic acid application. The thickness of the right ear and the left ear was measured and the difference calculated as an indication of the inflammation in the right ear. Ear swelling was measured by a Dyer model micrometer gauge at 60 and 90 minutes after arachidonic acid application as an index of inflammation. Percent inhibition was calculated according to the formula: Ic−It/Ic×100, where Ic and It refers to increase of ear thickness (mm) in control and treated mice, respectively. ANOVA and Dunnett's test were employed to ascertain significant difference between vehicle control and treated groups. Significance is set at P<0.05 level.

As for `CS(=O)(=O)C/C=C/C#N` [4-methylsulfonyl-2-butenenitrile], the “% Inhibition of ear swelling” value was 22%. The “anti-inflammatory activity in the mouse ear swelling model (in words)” value (applied topically, inflammation induced by arachidonic acid) is on record as “anti-inflammatory”.
Take `COc1ccc2c(c1)c(CC(=O)O)c(C)n2C(=O)c1ccc(Cl)cc1` [Indomethacin, indomethacin, reference compound]: the “% Inhibition of ear swelling” value was 58%.

Source of the values: patent publication US9770429B2, “4-methylsulfonyl-2-butenenitrile and its pharmaceutical use” (OLATEC THERAPEUTICS LLC, priority 2013, dated 2017).
